# Measurements reported in paper PMC11547703, “Design, Synthesis, and Evaluation of Doxifluridine Derivatives as Nitroreductase-Responsive Anticancer Prodrugs” (Molecules, 2024).
# System: HT29 human colon cancer cells
# Experiment: In vitro cytotoxicity (MTT assay) in HT29 cells with or without NTR
# Type: cell-based
# Settings: HT29, selectivity ratio
# Experimental: (§1) The cytotoxicity of the target compounds 1c–6c were evaluated in MCF-7 human breast cancer cells and HT29 human colon cancer cells. These two cell lines were chosen because 5′-DFUR is currently used to treat breast and gastrointestinal tumors. The cells were incubated with the target compounds at various concentrations for 24 h in the presence or absence of NTR. The cell viability and proliferation behavior were assessed by 3-(4,5-dimethylthiazol-2-yl)-2,5-diphenyltetrazolium (MTT) assay. The half-maximal inhibitory concentration values of the tested compounds for inhibiting cell proliferation are shown in Table 1.
# (§2) MCF-7 human breast cancer cells or HT29 human colon cancer cells purchased from the National Collection of Authenticated Cell Cultures were cultured in RPMI 1640 medium, and McCoy’s 5A medium supplemented with 10% fetal bovine serum and 1% penicillin-streptomycin in a humidified 5% CO2 incubator at 37 °C. Cells in the logarithmic growth phase were inoculated into 96-well plates at a density of 1.0 × 10^4 cells per well and cultured for 24 h. The target compounds were dissolved in DMSO and diluted in medium to different concentrations. The cells were then incubated with different concentrations of the target compound for 24 h. The cells in the NTR treatment group were incubated with various concentrations of compounds, NTR (final concentration, 50 µg/mL) and NADH (final concentration, 2 mM) for 24 h. Cell viability and proliferation were measured by MTT assay. Cell viability was calculated according to the following formula: cell viability (%) = (OD value of treatment group–OD value of blank group)/(OD value of control group–OD value of blank group) × 100. The half-maximal inhibitory concentration values were calculated from concentration-response curves using GraphPad PRISM (version 5.0, GraphPad, San Diego, CA, USA).
row,SMILES,IC50 (NTR-Free)/ IC50 (NTR)
1,"C[C@H]1O[C@@H](n2cc(F)c(=O)[nH]c2=O)[C@H](O)[C@@H]1O [5′-DFUR, 5′-deoxy-5-fluorouridine, reference compound]",1.05
2,C[C@H]1O[C@@H](n2cc(F)c(=O)n(Cc3ccc([N+](=O)[O-])cc3)c2=O)[C@H](O)[C@@H]1O [Compound 1c],7.39
3,C[C@H]1O[C@@H](n2cc(F)c(=O)n(Cc3ccco3)c2=O)[C@H](O)[C@@H]1O [Compound 5c],1.09

# Same assay, conditions: Homo sapiens, HT-29; HT29, 24 h, medium with NTR and NADH 2 mM, MTT; read-out: IC50 NTR
row,SMILES,IC50 [µM]
1,"C[C@H]1O[C@@H](n2cc(F)c(=O)[nH]c2=O)[C@H](O)[C@@H]1O [5′-DFUR, 5′-deoxy-5-fluorouridine, reference compound]",48.1
2,C[C@H]1O[C@@H](n2cc(F)c(=O)n(Cc3ccc([N+](=O)[O-])cc3)c2=O)[C@H](O)[C@@H]1O [Compound 1c],79
3,C[C@H]1O[C@@H](n2cc(F)c(=O)n(Cc3ccco3)c2=O)[C@H](O)[C@@H]1O [Compound 5c],422

# Same assay, conditions: Homo sapiens, HT-29; HT29, 24 h, medium without NTR, MTT; read-out: IC50 NTR-Free
row,SMILES,IC50 [µM]
1,"C[C@H]1O[C@@H](n2cc(F)c(=O)[nH]c2=O)[C@H](O)[C@@H]1O [5′-DFUR, 5′-deoxy-5-fluorouridine, reference compound]",50.4
2,C[C@H]1O[C@@H](n2cc(F)c(=O)n(Cc3ccc([N+](=O)[O-])cc3)c2=O)[C@H](O)[C@@H]1O [Compound 1c],584
3,C[C@H]1O[C@@H](n2cc(F)c(=O)n(Cc3ccco3)c2=O)[C@H](O)[C@@H]1O [Compound 5c],459

# System: MCF-7 human breast cancer cells
# Experiment: In vitro cytotoxicity (MTT assay) in MCF-7 cells with or without NTR
# Type: cell-based
# Settings: Homo sapiens, MCF7; MCF-7, 24 h, medium with NTR and NADH 2 mM, MTT; read-out: IC50 NTR
# Experimental: as §1, §2
row,SMILES,IC50 [µM]
1,"C[C@H]1O[C@@H](n2cc(F)c(=O)[nH]c2=O)[C@H](O)[C@@H]1O [5′-DFUR, 5′-deoxy-5-fluorouridine, reference compound]",86.7
2,C[C@H]1O[C@@H](n2cc(F)c(=O)n(Cc3ccc([N+](=O)[O-])cc3)c2=O)[C@H](O)[C@@H]1O [Compound 1c],106
3,C[C@H]1O[C@@H](n2cc(F)c(=O)n(Cc3ccco3)c2=O)[C@H](O)[C@@H]1O [Compound 5c],423

# Same assay, conditions: Homo sapiens, MCF7; MCF-7, 24 h, medium without NTR, MTT; read-out: IC50 NTR-Free
row,SMILES,IC50 [µM]
1,"C[C@H]1O[C@@H](n2cc(F)c(=O)[nH]c2=O)[C@H](O)[C@@H]1O [5′-DFUR, 5′-deoxy-5-fluorouridine, reference compound]",83.6
2,C[C@H]1O[C@@H](n2cc(F)c(=O)n(Cc3ccc([N+](=O)[O-])cc3)c2=O)[C@H](O)[C@@H]1O [Compound 1c],470
3,C[C@H]1O[C@@H](n2cc(F)c(=O)n(Cc3ccco3)c2=O)[C@H](O)[C@@H]1O [Compound 5c],412

# Same assay, conditions: MCF-7, selectivity ratio
row,SMILES,IC50 (NTR-Free)/ IC50 (NTR)
1,"C[C@H]1O[C@@H](n2cc(F)c(=O)[nH]c2=O)[C@H](O)[C@@H]1O [5′-DFUR, 5′-deoxy-5-fluorouridine, reference compound]",0.96
2,C[C@H]1O[C@@H](n2cc(F)c(=O)n(Cc3ccc([N+](=O)[O-])cc3)c2=O)[C@H](O)[C@@H]1O [Compound 1c],4.42
3,C[C@H]1O[C@@H](n2cc(F)c(=O)n(Cc3ccco3)c2=O)[C@H](O)[C@@H]1O [Compound 5c],0.97

# System: not listed separately
# Experiment: Stability of target compounds in rat plasma, HPLC
# Type: in vitro ADME, SD rat
# Settings: 50 μM, 37 °C
# Experimental: (§3) The stability of the target compounds was tested first, and excellent stability was essential for physiological function evaluation. Phosphate-buffered saline (PBS) of different pH values was used to evaluate the stability of the target compounds in a weakly acidic tumor microenvironment (pH 6.5) versus a weakly alkaline normal physiological environment (pH 7.4). […] The stability of the target compounds in mouse and rat plasma was excellent. The concentrations of all target compounds remained at >80% of the initial concentrations after 24 h, with the concentrations of compounds 1c, 2c, and 3c being 89%, 88%, and 83% in mouse plasma and 86%, 84%, and 81% in rat plasma, respectively (Figure 3c,d).
# (§4) PBS (pH 7.4) was made with 137 mM NaCl, 2.7 mM KCl, 10 mM Na2HPO4, and 1.8 mM KH2PO4, while PBS (pH 6.5) was made with 24.6 mM Na2HPO4 and 175.4 mM NaH2PO4. The target compounds were dissolved into the different buffers (50 μM; 1% DMSO), and the mixtures were incubated at 37 °C. A 100-μL sample was transferred to a vial for HPLC analysis at 1, 2, 4, 8, 12, and 24 h. C57BL/6 mice and SD rat orbital whole blood was collected into anticoagulation tubes and centrifuged at 4000× g for 5 min at 4 °C to obtain plasma. The target compounds were dissolved into the plasma (50 μM; 1% DMSO) and incubated at 37 °C. Each sample (100 μL) was collected and precipitated using 100 μL of acetonitrile. The mixture was vortexed for 5 min and centrifuged at 10,000× g for 10 min. The supernatant was transferred to a vial for HPLC analysis after 1, 2, 4, 8, 12, and 24 h.
row,SMILES,concentration relative to initial concentration after 24 h in rat plasma [%]
1,C[C@H]1O[C@@H](n2cc(F)c(=O)n(Cc3ccc([N+](=O)[O-])cc3)c2=O)[C@H](O)[C@@H]1O [Compound 1c],86

# System: HT29 colon cancer cells
# Experiment: In vivo antitumor activity in HT29 tumor-bearing mice
# Settings: 50 mg/kg intraperitoneally every 2 days for 4 weeks, HT29 tumor-bearing C57BL/6 mice
# Experimental: Compound 2c, which has excellent stability, a high metabolic rate, and strong cytotoxicity under NTR conditions in vitro, was selected for the in vivo evaluation of antitumor activity in tumor-bearing mice. Tumor-bearing mice were generated by the axillary injection of HT29 colon cancer cells into C57BL/6 mice. When the tumors grew to approximately 100–150 mm^3, the mice were randomly divided into negative control (vehicle), compound 2c (50 mg/kg), and positive control 5′-DFUR (50 mg/kg) groups (n = 6 each). The mice were injected intraperitoneally every 2 days for 4 weeks, and the tumor volume and body weight of the mice were measured every 2 days. No death occurred in any group of mice during the experimental period.
# Four-week-old C57BL/6 mice were purchased from Jinan Pengyue Experimental Animal Breeding Co. Ltd. (Jinan, China). The mice were housed in cages under a 12-h light/dark cycle from 7:00 to 19:00 at controlled temperatures (25–26 °C) and relative humidity (50 ± 10%) throughout the experimental period. All animals were allowed to eat and drink freely unless otherwise stated and allowed to acclimate for 1 week before the experiment. All animal experimental protocols were performed in accordance with applicable institutional and governmental regulations concerning the ethical use of animals (AP2024022954).
# The tumor-bearing mice model was established by the subcutaneous injection of HT29 cells (1 × 10^7 cells/mL) purchased from the National Collection of Authenticated Cell Cultures to the right axilla of C57BL/6 mice (100 µL/mouse). When the tumor size reached 100–150 mm^3, the mice were evenly divided into negative control (vehicle), group 2c (50 mg/kg), and 5′-DFUR (50 mg/kg) groups (n = 6 each). Compound 2c and 5′-DFUR were dissolved in a solution containing 10% ethanol, 10% castor oil, and 80% saline that also served as the negative control. The mice were injected intraperitoneally every 2 days for 4 weeks, and the tumor volumes and body weights of the mice were measured every 2 days. Tumor volume was calculated using the following formula: tumor volume = length (mm) × width (mm) × width (mm) × 0.5. The TGI rate was determined as follows: TGI = 1 − (treatment final volume − treatment initial volume)/(control final volume − control initial volume) × 100%.
row,SMILES,tumor growth inhibition (TGI) rate [%]
1,"C[C@H]1O[C@@H](n2cc(F)c(=O)[nH]c2=O)[C@H](O)[C@@H]1O [5′-DFUR, 5′-deoxy-5-fluorouridine, reference compound]",83.0

# System: not listed separately
# Experiment: Stability of target compounds in phosphate-buffered saline (pH 6.5 and pH 7.4), HPLC
# Type: physicochemical
# Settings: PBS pH 6.5 and 7.4, mouse and rat plasma (Figure S1)
# Experimental: as §3, §4
row,SMILES,stability in PBS at different pH values and plasma (in words)
1,C[C@H]1O[C@@H](n2cc(F)c(=O)n(Cc3ccco3)c2=O)[C@H](O)[C@@H]1O [Compound 5c],similarly stable

# System: not listed separately
# Experiment: Stability of target compounds in mouse plasma, HPLC
# Type: in vitro ADME, C57BL/6 mice
# Settings: 50 μM, 37 °C
# Experimental: as §3, §4
row,SMILES,concentration relative to initial concentration after 24 h in mouse plasma [%]
1,C[C@H]1O[C@@H](n2cc(F)c(=O)n(Cc3ccc([N+](=O)[O-])cc3)c2=O)[C@H](O)[C@@H]1O [Compound 1c],89

# Biological target: T1, NTR (Escherichia coli, UniProt P38489)
# T1 construct: host or cells: Escherichia coli
# Experiment: In vitro release evaluation: incubation with NTR and NADH, HPLC of derivative and released 5′-DFUR
# Type: biochemical
# Settings: Escherichia coli; 50 µM compound, NTR 50 µg/mL, NADH 2 mM, PBS pH 7.4, 37 °C; read-out: half-life in the presence of NTR (converted)
# Experimental: (§5) NTR levels are reportedly much higher in hypoxic tumors than in normal tissues. To investigate the mechanism of activation of the derivatives and the amount of 5′-DFUR released, we treated the target compounds with NTR extracted from Escherichia coli to determine whether they provided the desired active agent as expected. The test compounds (50 µM, 1% dimethyl sulfoxide [DMSO]) were dissolved in PBS buffer at pH 7.4 and incubated with NTR (50 µg/mL) and NADH (2 mM) at 37 °C, and the concentrations of the derivatives and 5′-DFUR during the bioreduction were detected by high-performance liquid chromatography (HPLC). The designed target compounds 1c–3c could be metabolized to form 5′-DFUR in the presence of NTR, while the nitro-free compounds 4c–6c could not be metabolized to form 5′-DFUR. […] The metabolic rate of compound 2c was the highest, with a half-life of 0.6 h. It was completely degraded after 4 h, and 69.6% of 5′-DFUR was released. […] During the experiment, other metabolites, such as hydroxylamine derivatives and amino derivatives generated by reducing the nitro group were also detected. […] Compounds 4c, 5c and 6c, without nitro groups, remained well-stabilized under NTR conditions, with concentrations > 90% after 12 h.
# (§6) The target compounds NTR and NADH were dissolved in 10 mM PBS (pH 7.4; 1% DMSO). The final concentrations of the target compounds NTR and NADH in the mixtures were 50 μM, 50 μg/mL, and 2 mM, respectively. The mixture were incubated at 37 °C. The sample (100 μL) was collected and quenched by 100 µL of cold methanol. The mixture was vortexed for 5 min and centrifuged at 10,000× g for 10 min. The supernatant was transferred to a vial for HPLC analysis at 0.25, 0.5, 1, 2, 4, 8, and 12 h.
# T1 sequence (P38489 whole entry): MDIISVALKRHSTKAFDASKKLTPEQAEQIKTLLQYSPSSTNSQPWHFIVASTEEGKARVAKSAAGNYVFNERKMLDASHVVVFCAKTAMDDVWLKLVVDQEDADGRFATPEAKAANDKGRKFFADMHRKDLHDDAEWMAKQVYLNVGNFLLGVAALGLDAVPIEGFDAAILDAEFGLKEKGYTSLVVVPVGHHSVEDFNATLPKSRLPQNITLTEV
row,SMILES,half-life at 50 µM [h]
1,C[C@H]1O[C@@H](n2cc(F)c(=O)n(Cc3ccc([N+](=O)[O-])cc3)c2=O)[C@H](O)[C@@H]1O [Compound 1c],1.3

# Biological target: T2, NTR extracted from Escherichia coli (Escherichia coli, UniProt P38489)
# T2 construct: host or cells: Escherichia coli
# Experiment: as above
# Type: biochemical
# Settings: 50 µM compound, NTR 50 µg/mL, NADH 2 mM, PBS pH 7.4, 37 °C
# Experimental: as §5, §6
# T2 sequence (P38489 whole entry): as above
row,SMILES,time after which compound was completely degraded by NTR [h]
1,C[C@H]1O[C@@H](n2cc(F)c(=O)n(Cc3ccc([N+](=O)[O-])cc3)c2=O)[C@H](O)[C@@H]1O [Compound 1c],12

# Same assay, conditions: 50 µM compound, NTR 50 µg/mL, NADH 2 mM, PBS pH 7.4, 37 °C, at complete degradation
row,SMILES,5′-DFUR released [%]
1,C[C@H]1O[C@@H](n2cc(F)c(=O)n(Cc3ccc([N+](=O)[O-])cc3)c2=O)[C@H](O)[C@@H]1O [Compound 1c],45.1

# Same assay, conditions: NTR 50 µg/mL, NADH 2 mM, PBS pH 7.4, 37 °C, 12 h
row,SMILES,concentration remaining under NTR conditions after 12 h [%]
1,C[C@H]1O[C@@H](n2cc(F)c(=O)n(Cc3ccco3)c2=O)[C@H](O)[C@@H]1O [Compound 5c],> 90
